Measured values published in US20080221218A1, “Receptor” (The University of York, priority 2005, published 2008).

Assays:
[1] = Potentiometric titrations: protonation constants; assay type: physicochemical; conditions: potentiometry, 0.1 M KCl, 25° C.; for Protonation constant (log K) 2H+ + L ⇄ H2L2+ / Protonation constant (log K) 3H+ + L ⇄ H3L3+ / Protonation constant (log K) 4H+ + L ⇄ H4L4+: cumulative; for Protonation constant (log K) H+ + H2L2+ ⇄ H3L3+ / Protonation constant (log K) H+ + H3L3+ ⇄ H4L4+ / Protonation constant (log K) H+ + HL+ ⇄ H2L2+: stepwise
Procedure: (§1) Potentiometric measurements were conducted using a Metrohm 792SM Titrino automated burette fitted with a combined glass electrode and an in-house designed jacketed glass cell thermostated at 25° C. suitable for small sample volumes (5 mL). The cell was sealed under an inert atmosphere. All solutions were made up using ultrapure CO2-free water from a Millipore Simplicity 185 system. The sample solutions contained 0.1 M KCl as a background electrolyte. The titrant base was made up from commercial (Riedel-de Haën) CO2-free concentrates of KOH, diluted to the required concentration (0.020 M) with a 0.080 M KCl solution to avoid problems of different ionic strengths. The glass electrode was calibrated by titrating well-known amounts of HCl (made up from Riedel-de Haën concentrates) with the base and determining the equivalence point using Gran's method (G. Gran, Analyst, 1952, 77, 661-671) yielding the ionic product of water (pKw=13.78), which was used as a constant in the subsequent analyses.
(§2) Sample concentrations were typically 1.0-5.0×10^−3 M. A known excess of HCl was added to ensure full protonation of the receptor. The degree of protonation of our receptors was calculated from the onset of titration curve. […] A minimum of 250 points in the pH-range of 2.5-11.0 was taken for every titration, with at least 30 seconds between each addition to ensure equilibration. The computer program […]^I was used to determine the protonation and stability constants. For each system a minimum of three titrations were first treated as individual sets and then merged and fitted simultaneously to give the final constants.
To study the binding in more detail we used potentiometry. To enable this, we first investigated the protonation constants of the receptors and the data is collected in Table 1. We calibrated our system with spermine (compound 4) and the data for this compound are also included in this table and were in accordance with literature values (Bazzicalupi et al, J. Am. Chem. Soc. 121: 6807-6815 (1999); De Stefano et al., J. Chem. Soc. Faraday Trans, 94:1091-1095 (1998); Bergeron et al., J. Med. Chem. 38:2278-2285 (1995)).

[2] = Potentiometric titrations: binding of inorganic phosphate (equimolar KH2PO4 and receptor); conditions: for Binding constant (Log K) H3L3+ + HA2− ⇄ H4LA+ / Binding constant (Log K) H4L4+ + HA2− ⇄ H5LA2+ / Binding constant (Log K) H2L2+ + HA2− ⇄ H3LA / Binding constant (Log K) H4L4+ + H2A− ⇄ H6LA3+ / Protonation and binding constant (Log K) 4H+ + L + A3− ⇄ H4LA+ / Protonation and binding constant (Log K) 5H+ + L + A3− ⇄ H5LA2+ / Protonation and binding constant (Log K) 3H+ + L + A3− ⇄ H3LA / Protonation and binding constant (Log K) 6H+ + L + A3− ⇄ H6LA3+: A = phosphate, 0.1 M KCl, 25° C.; for Binding constant (Log K) H3L3+ + HA2− ⇄ H4LA+ / Binding constant (Log K) H4L4+ + HA2− ⇄ H5LA2+ / Binding constant (Log K) H2L2+ + HA2− ⇄ H3LA / Binding constant (Log K) H4L4+ + H2A− ⇄ H6LA3+ / Protonation and binding constant (Log K) 4H+ + L + A3− ⇄ H4LA+ / Protonation and binding constant (Log K) 5H+ + L + A3− ⇄ H5LA2+ / Protonation and binding constant (Log K) 3H+ + L + A3− ⇄ H3LA / Protonation and binding constant (Log K) 6H+ + L + A3− ⇄ H6LA3+ / affinity towards inorganic phosphate (log K), range over protonation states: potentiometry; for Binding constant (Log K) H2L2+ + HA2− ⇄ H3LA / Binding constant (Log K) H4L4+ + H2A− ⇄ H6LA3+ / Protonation and binding constant (Log K) 3H+ + L + A3− ⇄ H3LA / Protonation and binding constant (Log K) 6H+ + L + A3− ⇄ H6LA3+: dash = equilibrium does not occur significantly; for Protonation and binding constant (Log K) 4H+ + L + A3− ⇄ H4LA+ / Protonation and binding constant (Log K) 5H+ + L + A3− ⇄ H5LA2+ / Protonation and binding constant (Log K) 3H+ + L + A3− ⇄ H3LA / Protonation and binding constant (Log K) 6H+ + L + A3− ⇄ H6LA3+: overall constant; for phosphate in solution bound by receptor: pH 7.0, from speciation diagrams of potentiometric data (FIG. 4); for affinity towards inorganic phosphate (log K), range over protonation states: summary of Table 2
Procedure: as §1, §2

[3] = Fluorimetric titrations: quenching of fluorescent phosphate derivative 13; conditions: 1:1 binding model; 0.1 M TRIS buffer pH 7.0; 13 at 5.0×10^−6 M
Procedure: Titrations were performed on a Spex Fluoromax-II instrument at 25° C. in a 0.1 M TRIS buffer of pH 7.0, using an excitation wavelength of 324 nm.
Upon titration of our receptors to a solution of this probe in buffered water (0.1 M Tris, pH 7.0) the emission of compound 13 was quenched indicating binding (FIG. 3).
This is related to the trans configuration of the oligoamines around the conformationally restricted scaffold in compound 1 preventing the oligoamines from cooperating.

[4] = literature (Bertsch et al.); cited from earlier work

| Compound | Protonation constant (log K) 2H+ + L ⇄ H2L2+ [1] | Protonation constant (log K) 3H+ + L ⇄ H3L3+ [1] | Protonation constant (log K) 4H+ + L ⇄ H4L4+ [1] | Protonation constant (log K) H+ + L ⇄ HL+ [1] | Protonation constant (log K) H+ + H2L2+ ⇄ H3L3+ [1] | Protonation constant (log K) H+ + H3L3+ ⇄ H4L4+ [1] | Protonation constant (log K) H+ + HL+ ⇄ H2L2+ [1] | Binding constant (Log K) H3L3+ + HA2− ⇄ H4LA+ [2] | Binding constant (Log K) H4L4+ + HA2− ⇄ H5LA2+ [2] | Binding constant (Log K) H2L2+ + HA2− ⇄ H3LA [2] | Binding constant (Log K) H4L4+ + H2A− ⇄ H6LA3+ [2] | Protonation and binding constant (Log K) 4H+ + L + A3− ⇄ H4LA+ [2] | Protonation and binding constant (Log K) 5H+ + L + A3− ⇄ H5LA2+ [2] | Protonation and binding constant (Log K) 3H+ + L + A3− ⇄ H3LA [2] | Protonation and binding constant (Log K) 6H+ + L + A3− ⇄ H6LA3+ [2] | phosphate in solution bound by receptor [2] [%] | affinity towards inorganic phosphate (log K), range over protonation states [2] | binding constant (log K) for fluorescent phosphate derivative 13 [3] | first protonation pKa [4] | second protonation pKa [4] |
| --- | --- | --- | --- | --- | --- | --- | --- | --- | --- | --- | --- | --- | --- | --- | --- | --- | --- | --- | --- | --- |
| NCCCN [1,3-diaminopropane] | – | – | – | – | – | – | – | – | – | – | – | – | – | – | – | – | – | – | 10.6 | 8.6 |
| NCCN [1,2-diaminoethane] | – | – | – | – | – | – | – | – | – | – | – | – | – | – | – | – | – | – | 10.1 | 7.0 |
| NCCCCN [1,4-diaminobutane] | – | – | – | – | – | – | – | – | – | – | – | – | – | – | – | – | – | – | – | 9.4 |
| CN(CCCN)CCCNC(=O)[C@@H]1C2C=CC(C2)[C@H]1C(=O)NCCCN(C)CCCN [Compound 14] | 18.49 | 25.67 | 27.91 | 9.76 | 7.18 | 2.24 | 8.73 | 5.52 | 10.70 | 4.37 | 10.17 | 42.67 (3) | 50.09 (3) | 34.34 (3) | 56.47 (3) | 95 | – | – | – | – |
| CN1CCCNCc2cccc(c2)CNCCCN(C)CCCNC(=O)/C=C\C(=O)NCCC1 [Compound 3] | 18.82 | 25.14 | 28.11 | 10.32 | 6.32 | 2.97 | 8.50 | 10.24 | – | 7.53 | 10.90 | 46.85 (4) | 53.76 (5) | 37.83 (4) | 57.40 (5) | – | – | 5.30 | – | – |

Second part, led by results:

| Protonation constant (log K) 2H+ + L ⇄ H2L2+ [1] | Protonation constant (log K) 3H+ + L ⇄ H3L3+ [1] | Protonation constant (log K) 4H+ + L ⇄ H4L4+ [1] | Protonation constant (log K) H+ + L ⇄ HL+ [1] | Protonation constant (log K) H+ + H2L2+ ⇄ H3L3+ [1] | Protonation constant (log K) H+ + H3L3+ ⇄ H4L4+ [1] | Protonation constant (log K) H+ + HL+ ⇄ H2L2+ [1] | Binding constant (Log K) H3L3+ + HA2− ⇄ H4LA+ [2] | Binding constant (Log K) H4L4+ + HA2− ⇄ H5LA2+ [2] | Binding constant (Log K) H2L2+ + HA2− ⇄ H3LA [2] | Binding constant (Log K) H4L4+ + H2A− ⇄ H6LA3+ [2] | Protonation and binding constant (Log K) 4H+ + L + A3− ⇄ H4LA+ [2] | Protonation and binding constant (Log K) 5H+ + L + A3− ⇄ H5LA2+ [2] | Protonation and binding constant (Log K) 3H+ + L + A3− ⇄ H3LA [2] | Protonation and binding constant (Log K) 6H+ + L + A3− ⇄ H6LA3+ [2] | phosphate in solution bound by receptor [2] [%] | affinity towards inorganic phosphate (log K), range over protonation states [2] | binding constant (log K) for fluorescent phosphate derivative 13 [3] | Compound | first protonation pKa [4] | second protonation pKa [4] |
| --- | --- | --- | --- | --- | --- | --- | --- | --- | --- | --- | --- | --- | --- | --- | --- | --- | --- | --- | --- | --- |
| 19.06 | 26.52 | 30.27 | 10.04 | 7.46 | 3.75 | 9.02 | 5.27 | 8.55 | 4.40 | 7.67 | 43.27 (7) | 50.30 (7) | 34.94 (4) | 56.33 (9) | 95 | 4.4-8.6 | 5.15 | CN(CCCN)CCCNC(=O)/C=C\C(=O)NCCCN(C)CCCN [Compound 2] | – | – |
| 20.05 | 28.42 | 35.50 | 10.45 | 8.37 | 7.08 | 9.60 | 2.90 | 3.39 | – | – | 42.87 | 50.44 | – | – | 31 | 2.9-3.4 | no significant binding occurs | CN(CCCN)CCCNC(=O)/C=C/C(=O)NCCCN(C)CCCN [Compound 1] | – | – |
| 20.63 | 29.50 | 37.58 | 10.64 | 8.87 | 8.08 | 9.99 | – | – | – | – | – | – | – | – | – | – | – | NCCCNCCCCNCCCN [Compound 4, spermine, reference compound] | – | – |
